Experimental data as given in EP1100483B1, “GLUCOCORTICOID-SELECTIVE ANTI-INFLAMMATORY AGENTS” (Abbott Laboratories, priority 1998, dated 2000).
pKi: −log10 of the molar value.

Each molecule was assayed against T1, human glucocorticoid receptor-α [GRX] isoform (Homo sapiens, UniProt P04150) (assay: glucocorticoid receptor (GR) cytosol binding assay, [3H]-dexamethasone competition). Conditions: not given.
T1 construct: purchased Ligand Pharmaceuticals (San Diego, CA); host or cells: insect SF21 cells (baculovirus)
T1 sequence (P04150 1-777): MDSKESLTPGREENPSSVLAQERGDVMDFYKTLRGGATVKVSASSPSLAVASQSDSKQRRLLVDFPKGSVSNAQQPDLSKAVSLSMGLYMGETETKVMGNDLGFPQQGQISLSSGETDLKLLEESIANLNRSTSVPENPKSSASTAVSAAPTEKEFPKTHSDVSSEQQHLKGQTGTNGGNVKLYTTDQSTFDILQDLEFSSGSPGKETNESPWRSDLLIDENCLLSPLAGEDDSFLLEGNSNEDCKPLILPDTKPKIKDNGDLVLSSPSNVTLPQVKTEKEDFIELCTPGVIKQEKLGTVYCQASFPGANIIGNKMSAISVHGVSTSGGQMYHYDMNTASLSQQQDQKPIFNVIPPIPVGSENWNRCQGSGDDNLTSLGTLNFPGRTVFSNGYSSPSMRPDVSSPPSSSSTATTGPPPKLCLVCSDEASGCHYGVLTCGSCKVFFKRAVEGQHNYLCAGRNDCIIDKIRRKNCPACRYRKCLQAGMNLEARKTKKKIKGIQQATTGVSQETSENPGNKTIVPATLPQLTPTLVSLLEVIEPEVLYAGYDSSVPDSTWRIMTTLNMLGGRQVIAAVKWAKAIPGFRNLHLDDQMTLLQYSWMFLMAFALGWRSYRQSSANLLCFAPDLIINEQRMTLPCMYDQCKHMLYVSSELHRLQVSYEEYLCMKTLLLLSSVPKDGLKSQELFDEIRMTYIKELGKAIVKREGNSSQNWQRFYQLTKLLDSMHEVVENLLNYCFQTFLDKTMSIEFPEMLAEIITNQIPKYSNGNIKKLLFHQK
Description: For glucocorticoid receptor (OR) cytosol binding assays, the procedure described in Anal. […] Briefly, cytosol preparations of human glucocorticoid receptor-α [GRX] isoform and human progesterone receptor-A [PRA] isoform were obtained from Ligand Pharmaceuticals (San Diego, CA). Both receptor cDNAs were cloned into baculovirus expression vectors and expressed in insect SF21 cells. […] Glass fiber type C multiscreen MAFC NOB plates were from Millipore ( Burlington, MA). Hydroxyapatide Bio-Gel HTP gel was obtained from Bio-Rad Laboratories (Hercules. CA). Tris(hydroxymethyl)aminomethane (Tris), ethylenediaminetetraacetic acid (EDTA), glycerol, dithiothreitol (DTT) and sodium moylybdate were obtained from Sigma Chemicals (St. Louis, MO). Microscint-20 scintillation fluid was obtained from Packard Instrument (Meriden, CT). […] GRX and PRA binding reactions were performed in Millipore Multiscreen plates. […] Specific binding was defined as the difference between binding of [^3H]Dex in the absence and in the presence of 1µM unlabeled Dex. After an overnight incubation, 50 µL of hydroxyapatite (25 % weight/volume) slurry were added to each well and plates were incubated for 10 min at 4 °C in a plate shaker. Plates were suctioned with a Millipore vacuum manifold and each well was rinsed with 300 µL of ice-cold binding buffer. A 250 µL aliquot of Packard Microscint-20 was added to each well and the wells were shaken at room temperature for 20 minutes. The amount of radioactivity was determined with a Packard TopCount plate reader.

Point of comparison: `CN(C)c1ccc(C(c2ccc(N(C)CCO)cc2)c2cc([N+](=O)[O-])ccc2Cl)cc1` (stereo not shown) [Example 42, 4'-dimethylamino-4"-(N-methyl-N-(2-hydroxyethyl)amino)-2-chloro-5-nitrotriphenylmethane], pKi 6.96. Against it:
- CC(=O)OCCN(C)c1ccc(C(c2ccc(N(C)C)cc2)c2cc([N+](=O)[O-])ccc2Cl)cc1 (stereo not shown) [Example 51, 4'-dimethylamino-4"-(N-methyl-N-(2-acetoxyethyl)amino)-2-chloro-5-nitrotriphenylmethane] — within 0.2 log units, 6.78
- CN(C)c1ccc(C(c2ccc(N(C)C)cc2)c2cc(Cl)ccc2Cl)cc1 [Example 24, 4',4" bis(dimethylamino)-2,5-dichlorotriphenylmethane] — 0.45 log units lower, 6.51
- CNc1ccc(C(c2ccc(N(C)C)cc2)c2cc([N+](=O)[O-])ccc2Cl)cc1 (stereo not shown) [Example 39, 4'-dimethylamino-4"-methylamino-2-chloro-5-nitrotriphenylmethane] — within 0.2 log units, 6.90

Same assay, conditions: [3H]-Dex ~0.9 nM, GRX cytosol, 4 °C overnight; Cheng-Prusoff; read-out: Ki (nM) GR

Point of comparison: `CNc1ccc(C(c2ccc(NC)cc2)c2cc([N+](=O)[O-])ccc2Cl)cc1` [Example 23, 4',4" bis(methylamino)-2-chloro-5-nitrotriphenylmethane], Ki 60 nM. Against it:
- O=[N+]([O-])c1ccc(Cl)c(C(c2ccc(NCc3ccccc3)cc2)c2ccc(NCc3ccccc3)cc2)c1 [Example 36, 4',4" bis(N-benzylamino)-2-chloro-5-nitrotriphenylmethane] — 1.6-fold lower, 38 nM
- CNc1ccc(C(c2ccc(N(C)CCOC(C)=O)cc2)c2cc([N+](=O)[O-])ccc2Cl)cc1 (stereo not shown) [Example 49, 4'-methylamino-4"-(N-(2-acetoxyethyl)-N-methylamino)-2-chloro-5-nitrotriphenylmethane] — 2.2-fold higher, 135 nM
- CN(C)c1ccc(C(Oc2ccccc2)c2cc([N+](=O)[O-])ccc2Cl)cc1 (stereo not shown) [Example 52, phenyl-[(4'-dimethylaminophenyl)-(2-chloro-5-nitrophenyl)methyl] ether] — 12-fold higher, 733 nM
- CC(=O)OCCN(C)c1ccc(C(c2ccc(N(C)CCOC(C)=O)cc2)c2cc([N+](=O)[O-])ccc2Cl)cc1 [Example 31, 4',4" bis(N-(2-acetoxyethyl) N-methylamino)-2-chloro-5-nitrotriphenylmethane] — 2.4-fold higher, 145 nM
- CN(C)c1ccc(C(Sc2ccccc2)c2cc([N+](=O)[O-])ccc2Cl)cc1 (stereo not shown) [Example 54, phenyl-[(4'-dimethylaminophenyl)-(2-chloro-5-nitrophenyl)methyl]thioether] — 3.8-fold higher, 227 nM
- CN(CCO)c1ccc(C(c2ccc(N(C)CCO)cc2)c2cc([N+](=O)[O-])ccc2Cl)cc1 [Example 32, 4',4" bis(N-(2-hydroxyethyl) N-methylamino)-2-chloro-5-nitrotriphenylmethane] — 2.3-fold higher, 136 nM
- CNc1ccc(C(c2ccc(NC)cc2)c2cc(Cl)ccc2Cl)cc1 [Example 27, 4',4" bis(methylamino)-2,5-dichlorotriphenylmethane] — within 1.5-fold, 71 nM
- CN(C)c1ccc(C(c2ccc(N(C)C)cc2)c2cc([N+](=O)[O-])ccc2Cl)cc1 [Example 1, 4',4" bis(dimethylamino)-2-chloro-5-nitrotriphenylmethane] — 4.5-fold higher, 272 nM
